Where a name gives a salt, the structure may show the parent alone.
Tests used:
HeLa cells = assay: CFTR Protein Expression Assay in HeLa Cells; format: cell-based, Human; conditions: LNPs encapsulating CFTR mRNA, N=4 wells; 5 h serum-free then 24 h; immunofluorescence vs PBS control
Procedure: (§1) For HeLa studies evaluating CFTR protein expression, the intermediate nanoparticle formulation (1 mL, 0.415 mg mRNA) is mixed with a buffer containing 20 mM TRIS (pH 7.5), 0.9 mg/mL PEG-DMG-2K and lipid amine SA50 (647.1 nmol) at a volumetric ratio of 6:1 of nanoparticle:buffer. The resulting nanoparticle suspension undergoes concentration using a centrifugal filtration device (100 kDa molecular weight cut-off) and is diluted in running buffer (20 mM TRIS, 14.3 mM sodium acetate, and 32 g/L sucrose, pH 7.5) with a 300 mM NaCl solution to a final buffer matrix containing 70 mM NaCl.
Lipid nanoparticle compositions were prepared in a manner analogous to that in example 2. To evaluate LNP cellular uptake and protein expression In Vitro, HeLa cells from ATCC.org (ATCC CCL-2) are used. The cells are cultured in complete Minimum Essential Medium (MVEM) and are plated in 96 well Cell Carrier Ultra plate with PDL coated surface (PerkinElmer) prior to running an experiment.
Buffer control (PBS) and LNPs encapsulating cystic fibrosis transmembrane conductance regulator (CFTR) mRNA were dosed with MEM media in the absence of serum (N=4 replicate wells). LNP transfected cells were incubated for 5 h, followed by media removal and supplementation with complete MEM media. Cells were further incubated in complete MEM media overnight (24 h).
Following 24 hr incubation, the cells were fixed with PFA and processed for immunofluorescence (IF) using an anti-CFTR rabbit monoclonal antibody. Briefly, the cells were permeabilized with 0.5% TX-100 for 10 min, blocked with 3% bovine serum albumin (BSA)+PBST for 1 hr at room temperature, and incubated with primary anti-CFTR monoclonal antibody overnight at 4° C. Following primary antibody incubation, the cells were incubated with Alexa 488 conjugated secondary antibody for 30 mi and stained with DAPI and HCS CellMask Blue stain. Between different incubation steps the cells were either washed with PBS or PBST. Cells were imaged using Opera Phoenix spinning disk confocal microscope (PerkinElmer), and CFTR protein expression was detected using the 488 nm channel. The image analysis was performed in Harmony 4.9, with main analysis output being CFTR intensity per cell. The results shown in Table 3b show fold-change in CFTR signal intensity per cell compared to buffer (PBS) control (NA=not available).

[1] = Encapsulation of mRNA nanoparticles with lipid amines using Ribogreen assay; format: physicochemical; conditions: CFTR mRNA nanoparticle with lipid amine
Procedure: (§2) Lipids are dissolved in ethanol at a concentration of 24 mg/mL and molar ratios of 49.0:11.2:39.3:0.5 (IL1:DSPC:cholesterol:PEG-DMG-2K) and mixed with the acidification buffer (45 mM acetate buffer at pH 4). The lipid solution and acidification buffer are mixed using a multi-inlet vortex mixer at a 3:7 volumetric ratio of lipid:buffer for mixer 1 and mixer 2 and a 1:3 volumetric ratio of lipid:buffer (25% ethanol) for mixer 3. After a 5 second residence time, the resulting nanoparticles are mixed with 55 mM sodium acetate at pH 5.6 at a volumetric ratio of 5:7 of nanoparticle:buffer. See Table 2a for mixing parameters. The resulting dilute nanoparticles are then buffer exchanged and concentrated using tangential flow filtration (TFF) into a final buffer containing 5 mM sodium acetate pH 5.0. Then a 70% sucrose solution in 5 mM acetate buffer at pH 5 is subsequently added.
(§3) The resulting nanoparticles at a lipid concentration of 7.33 mg/mL in 5 mM acetate (pH 5) and 75 g/L sucrose are mixed with mRNA (luciferease or CFTR) at a concentration of 0.625 mg/mL in 42.5 mM sodium acetate pH 5.0, with N:P of 4.93. The nanoparticle solution and nanoparticles are mixed using a multi-inlet vortex mixer at a 3:2 volumetric ratio of nanoparticle:mRNA. Once loaded with mRNA, these intermediate nanoparticles undergo a 300 second residence time prior addition of neutralization buffer containing 120 mM TRIS pH 8.12 at a volumetric ratio of 5:1 of nanoparticle:buffer.
(§4) For HeLa studies evaluating luciferase protein expression, PEG-DMG-2K dissolved in a 20 mM TRIS buffer (pH 7.5) is added to the neutralized intermediate nanoparticle solution at a ratio of 1:6, bringing the solution to the final molar ratios of IL1:DSPC:cholesterol:PEG-DMG-2K of 48.5:11.1:38.9:1.5%. This nanoparticle formulation is then modified with lipid amines. In a typical example, nanoparticle formulation at a concentration of 0.18 mg/mL mRNA and a 0.56 mL volume is modified with lipid amine SA50 (467.2 nmol) prepared in buffer containing 20 mM TRIS, 14.3 mM sodium acetate, 32 g/L sucrose and 140 mM NaCl-pH 7.5 at a volumetric ratio of 1:1 of nanoparticle:buffer.
as §1
(§5) Both resulting nanoparticle suspensions are filtered through a 0.8/0.2 μm capsule filter and filled into glass vials at an mRNA strength of about 0.1-1 mg/mLBliophysical data (Diameter and PDI from DLS measurements and Encapsualtion using Ribogreen assay) for both luciferase and CFTR mRNA nanoparticles with lipid amines is shown in Tables 2c and d, respectively.

[2] = Diameter and PDI from DLS measurements of mRNA nanoparticles with lipid amines; format: physicochemical; conditions: CFTR mRNA nanoparticle with lipid amine
Procedure: as §2, §3, §4, §1, §5

Compound	Average fold-change in CFTR signal intensity per cell compared to buffer control ± standard deviation (HeLa cells)	% Encapsulation (Ribogreen) [1]	Diameter (nm) [2]	PDI [2]
CC(C)CCC[C@@H](C)[C@H]1CC[C@H]2[C@@H]3CC=C4C[C@@H](OC(=O)CN(CCCN)CCCCNCCCN)CC[C@]4(C)[C@H]3CC[C@]12C (stereo in doubt) [SA65, ((3S,8S,9S,10R,13R,14S,17R)-10,13-dimethyl-17-((R)-6-methylheptan-2-yl)-2,3,4,7,8,9,10,11,12,13,14,15,16,17-tetradecahydro-1H-cyclopenta[a]phenanthren-3-yl N-(3-aminopropyl)-N-(4-((3-aminopropyl)amino)butyl)glycinatetetrahydrochloride]	5.9 ± 0.5 fold-change	99.6%	78.0 nm	0.14
CC(C)CCC[C@@H](C)[C@H]1CC[C@H]2[C@@H]3CC=C4C[C@@H](OC(=O)CC(=O)N(CCCN(C)C)CCCN(C)C)CC[C@]4(C)[C@H]3CC[C@]12C.Cl.Cl [SA50, (3S,8S,9S,10R,13R,14S,17R)-10,13-Dimethyl-17-((R)-6-methylheptan-2-yl)-2,3,4,7,8,9,10,11,12,13,14,15,16,17-tetradecahydro-1H-cyclopenta[a]phenanthren-3-yl 3-(bis(3-(dimethylamino)propyl)amino)-3-oxopropanoate dihydrochloride]	7.1 ± 0.4 fold-change	99.3%	77.1 nm	0.11
CC(C)CCC[C@@H](C)[C@H]1CC[C@H]2[C@@H]3CC=C4C[C@@H](OC(=O)CCCC(=O)N(CCCN(C)C)CCCN(C)C)CC[C@]4(C)[C@H]3CC[C@]12C.Cl.Cl [SA51, (3S,8S,9S,10R,13R,14S,17R)-10,13-Dimethyl-17-((R)-6-methylheptan-2-yl)-2,3,4,7,8,9,10,11,12,13,14,15,16,17-tetradecahydro-1H-cyclopenta[a]phenanthren-3-yl 5-(bis(3-(dimethylamino)propyl)amino)-5-oxopentanoate dihydrochloride]	6.5 ± 0.4 fold-change	98.4%	74.3 nm	0.15
CC(C)CCC[C@@H](C)[C@H]1CC[C@H]2[C@@H]3CC=C4C[C@@H](OC(=O)CCCC(=O)N(CCCN)CCCCNCCCN)CC[C@]4(C)[C@H]3CC[C@]12C.Cl.Cl.Cl [SA58, (3S,8S,9S,10R,13R,14S,17R)-10,13-Dimethyl-17-((R)-6-methylheptan-2-yl)-2,3,4,7,8,9,10,11,12,13,14,15,16,17-tetradecahydro-1H-cyclopenta[a]phenanthren-3-yl 5-((3-aminopropyl)(4-((3-aminopropyl)amino)butyl)amino)-5-oxopentanoate trihydrochloride]	4.5 ± 0.3 fold-change	99.6%	71.6 nm	0.10
CC(C)CCC[C@@H](C)[C@H]1CC[C@H]2[C@@H]3CC=C4C[C@@H](OC(=O)N(CCCCCCCCN(C)C)CCCN(C)C)CC[C@]4(C)[C@H]3CC[C@]12C [SA64, (3S,8S,9S,10R,13R,14S,17R)-10,13-dimethyl-17-((R)-6-methylheptan-2-yl)-2,3,4,7,8,9,10,11,12,13,14,15,16,17-tetradecahydro-1H-cyclopenta[a]phenanthren-3-yl (8-(dimethylamino)octyl)(3-(dimethylamino)propyl)carbamate]	9.1 ± 0.6 fold-change	99.1%	67.8 nm	0.09
CC(C)CCC[C@@H](C)[C@H]1CC[C@H]2[C@@H]3CC=C4C[C@@H](OC(=O)N(CCCCOCCCN(C)C)CCCN(C)C)CC[C@]4(C)[C@H]3CC[C@]12C [SA67, (3S,8S,9S,10R,13R,14S,17R)-10,13-dimethyl-17-((R)-6-methylheptan-2-yl)-2,3,4,7,8,9,10,11,12,13,14,15,16,17-tetradecahydro-1H-cyclopenta[a]phenanthren-3-yl (4-(3-(dimethylamino)propoxy)butyl)(3-(dimethylamino)propyl)carbamate]	7.7 ± 0.7 fold-change	99.2%	72.8 nm	0.10
CC(C)CCC[C@@H](C)[C@H]1CC[C@H]2[C@@H]3CC=C4C[C@@H](OC(=O)N(CCCCN(C)CCCN(C)C)CCCN(C)C)CC[C@]4(C)[C@H]3CC[C@]12C [SA68, (3S,8S,9S,10R,13R,14S,17R)-10,13-dimethyl-17-((R)-6-methylheptan-2-yl)-2,3,4,7,8,9,10,11,12,13,14,15,16,17-tetradecahydro-1H-cyclopenta[a]phenanthren-3-yl (3-(dimethylamino)propyl)(4-((3-(dimethylamino)propyl)(methyl)amino)butyl)carbamate]	8.9 ± 0.4 fold-change	99.2%	74.6 nm	0.12
CC(C)CCC[C@@H](C)[C@H]1CC[C@H]2[C@@H]3CC=C4C[C@@H](OC(=O)[C@H](C)N(CCCN)CCCCNCCCN)CC[C@]4(C)[C@H]3CC[C@]12C [SA73, (3S,8S,9S,10R,13R,14S,17R)-10,13-Dimethyl-17-((R)-6-methylheptan-2-yl)-2,3,4,7,8,9,10,11,12,13,14,15,16,17-tetradecahydro-1H-cyclopenta[a]phenanthren-3-yl N-(3-aminopropyl)-N-(4-((3-aminopropyl)amino)butyl)alaninate trihydrochloride]	9.4 ± 0.6 fold-change	100%	92.8 nm	0.16

From patent publication US20260109732A1, “LIPID AMINES” (ModernaTX, Inc., priority 2021, published 2026)
